In PMC8786932, “Bicyclic azetidines target acute and chronic stages of Toxoplasma gondii by inhibiting parasite phenylalanyl t-RNA synthetase” (Nature Communications, 2022):
pIC50: −log10 of the molar value. Where “and” joins values, the source holds several entries; their conditions need not be identical. Equal values may be shown once.

Experiments:
TgPheRS[M484I] = biological target: T1, TgPheRS[M484I] (Toxoplasma gondii, UniProt A0A125YPN6, M484I); assay: Enzyme assay, TgPheRS M484I; assay type: biochemical; conditions: for enzyme assay readout (raw): M484I
T1 sequence (A0A125YPN6 1-525 M484I): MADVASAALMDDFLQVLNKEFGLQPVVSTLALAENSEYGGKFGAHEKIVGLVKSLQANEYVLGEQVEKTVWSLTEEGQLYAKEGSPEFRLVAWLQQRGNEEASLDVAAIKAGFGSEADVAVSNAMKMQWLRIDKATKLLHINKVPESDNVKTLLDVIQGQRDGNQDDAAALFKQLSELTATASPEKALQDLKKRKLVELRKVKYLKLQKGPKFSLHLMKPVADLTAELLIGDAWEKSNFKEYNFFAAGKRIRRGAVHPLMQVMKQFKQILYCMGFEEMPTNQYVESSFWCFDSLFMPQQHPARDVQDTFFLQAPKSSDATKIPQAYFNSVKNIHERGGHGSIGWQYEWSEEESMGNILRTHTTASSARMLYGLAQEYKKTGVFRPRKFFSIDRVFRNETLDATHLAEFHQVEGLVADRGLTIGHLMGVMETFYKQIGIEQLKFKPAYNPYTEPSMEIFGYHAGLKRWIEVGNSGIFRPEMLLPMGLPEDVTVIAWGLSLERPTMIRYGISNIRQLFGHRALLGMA
T1 sequence (S8EZ50 1-675 partner): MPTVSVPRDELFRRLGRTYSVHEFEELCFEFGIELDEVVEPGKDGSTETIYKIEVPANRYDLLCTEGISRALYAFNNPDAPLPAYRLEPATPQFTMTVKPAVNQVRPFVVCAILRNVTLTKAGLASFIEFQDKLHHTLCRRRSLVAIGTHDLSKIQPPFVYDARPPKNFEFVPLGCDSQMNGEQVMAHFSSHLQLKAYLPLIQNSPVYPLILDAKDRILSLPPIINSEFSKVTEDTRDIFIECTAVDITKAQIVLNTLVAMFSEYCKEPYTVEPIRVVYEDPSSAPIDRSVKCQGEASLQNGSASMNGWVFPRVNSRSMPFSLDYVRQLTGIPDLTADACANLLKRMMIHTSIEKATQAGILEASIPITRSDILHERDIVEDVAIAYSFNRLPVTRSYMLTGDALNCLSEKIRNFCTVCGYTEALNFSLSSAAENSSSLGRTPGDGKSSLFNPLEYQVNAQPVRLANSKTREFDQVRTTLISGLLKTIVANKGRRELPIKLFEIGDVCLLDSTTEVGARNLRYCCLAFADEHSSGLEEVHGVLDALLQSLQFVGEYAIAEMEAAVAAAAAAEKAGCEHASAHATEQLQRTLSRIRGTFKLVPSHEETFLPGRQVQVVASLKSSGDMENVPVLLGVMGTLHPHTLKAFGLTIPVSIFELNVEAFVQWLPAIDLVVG

recombinant HsPheRS = biological target: T2, recombinant HsPheRS (Homo sapiens, UniProt Q9Y285); assay: Malachite green aminoacylation enzyme assay, HsPheRS; conditions: for Hu PheRS enzyme assay raw signal: replicates
T2 sequence (Q9Y285 1-508): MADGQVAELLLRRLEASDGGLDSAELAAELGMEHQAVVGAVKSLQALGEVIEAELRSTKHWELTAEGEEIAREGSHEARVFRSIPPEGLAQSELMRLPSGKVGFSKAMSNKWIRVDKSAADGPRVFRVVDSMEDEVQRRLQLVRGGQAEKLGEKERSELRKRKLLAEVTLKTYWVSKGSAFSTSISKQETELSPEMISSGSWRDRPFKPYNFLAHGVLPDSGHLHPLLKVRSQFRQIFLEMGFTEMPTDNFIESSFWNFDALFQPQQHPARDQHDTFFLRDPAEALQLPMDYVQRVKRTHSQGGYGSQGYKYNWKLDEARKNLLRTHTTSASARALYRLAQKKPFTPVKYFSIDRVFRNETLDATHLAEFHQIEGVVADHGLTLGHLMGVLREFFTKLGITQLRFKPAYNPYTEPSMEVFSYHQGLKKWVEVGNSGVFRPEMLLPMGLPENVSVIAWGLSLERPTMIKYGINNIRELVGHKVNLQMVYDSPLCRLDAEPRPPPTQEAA
T2 sequence (Q9NSD9 1-589 partner): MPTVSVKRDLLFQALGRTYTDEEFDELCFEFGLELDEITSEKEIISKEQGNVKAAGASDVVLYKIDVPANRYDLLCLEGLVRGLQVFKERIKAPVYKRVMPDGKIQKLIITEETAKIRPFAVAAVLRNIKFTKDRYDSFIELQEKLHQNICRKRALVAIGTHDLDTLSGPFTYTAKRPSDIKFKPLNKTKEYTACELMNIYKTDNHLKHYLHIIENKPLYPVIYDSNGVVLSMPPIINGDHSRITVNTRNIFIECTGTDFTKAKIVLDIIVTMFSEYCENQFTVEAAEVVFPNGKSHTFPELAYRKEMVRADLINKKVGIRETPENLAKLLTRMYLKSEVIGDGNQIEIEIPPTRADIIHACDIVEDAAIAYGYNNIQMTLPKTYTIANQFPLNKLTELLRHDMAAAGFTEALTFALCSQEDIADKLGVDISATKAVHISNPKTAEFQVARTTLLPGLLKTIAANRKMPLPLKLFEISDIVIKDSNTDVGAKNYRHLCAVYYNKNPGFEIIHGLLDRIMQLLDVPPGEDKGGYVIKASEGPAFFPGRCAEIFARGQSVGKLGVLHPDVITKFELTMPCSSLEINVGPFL

COc1ccc(NC(=O)N2CCCCN3[C@H](CN(C)C)[C@H](c4ccc(C#Cc5ccccc5)cc4)[C@@H]3C2)cc1 [BRD7929]
enzyme assay readout (raw) (TgPheRS[M484I]; 0.000050 μM): 0.2597 and 0.2568 and 0.2561 | enzyme assay readout (raw) (TgPheRS[M484I]; 0.000500 μM): 0.2555 and 0.2526 and 0.2544 | enzyme assay readout (raw) (TgPheRS[M484I]; 0.005000 μM): 0.2503 and 0.2478 and 0.2487 | enzyme assay readout (raw) (TgPheRS[M484I]; 0.050000 μM): 0.2472 and 0.2441 and 0.2410 | enzyme assay readout (raw) (TgPheRS[M484I]; 0.500000 μM): 0.2388 and 0.2402 and 0.2378 | enzyme assay readout (raw) (TgPheRS[M484I]; 5.000000 μM): 0.2341 and 0.2345 and 0.2337 | enzyme assay readout (raw) (TgPheRS[M484I]; 50.000000 μM): 0.2266 and 0.2241 | pIC50 (TgPheRS[M484I]; Table S4, M484I, read-out: IC50 (enzyme inhibition)): 6.87 | pIC50 (recombinant HsPheRS): 4.65 | Hu PheRS enzyme assay raw signal (recombinant HsPheRS; BRD7929 0.000001 μM): 0.7213 and 0.8235 and 0.7680 | Hu PheRS enzyme assay raw signal (recombinant HsPheRS; BRD7929 0.000010 μM): 0.6210 and 0.7246 and 0.7585 | Hu PheRS enzyme assay raw signal (recombinant HsPheRS; BRD7929 0.000100 μM): 0.6366 and 0.8166 and 0.8094 | Hu PheRS enzyme assay raw signal (recombinant HsPheRS; BRD7929 0.001000 μM): 0.7178 and 0.7568 and 0.6293 | Hu PheRS enzyme assay raw signal (recombinant HsPheRS; BRD7929 0.010000 μM): 0.4951 and 0.5827 and 0.6166 | Hu PheRS enzyme assay raw signal (recombinant HsPheRS; BRD7929 0.100000 μM): 0.5035 and 0.5467 and 0.5776 | Hu PheRS enzyme assay raw signal (recombinant HsPheRS; BRD7929 1.000000 μM): 0.4827 and 0.4553 and 0.5046 | Hu PheRS enzyme assay raw signal (recombinant HsPheRS; BRD7929 10.000000 μM): 0.4350 and 0.4477 and 0.4390 | Hu PheRS enzyme assay raw signal (recombinant HsPheRS; BRD7929 100.000000 μM): 0.4107 and 0.4228 and 0.4405
